Experimental data reported in PubChem BioAssay (NCI).
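Values below derive from 48-hour exposures of cells grown in 96-well plates, with endpoints linearly interpolated between the two concentrations bracketing the appropriate inhibition level. GI50 is the concentration that inhibits growth by half. Definition used: TGI = concentration required for complete inhibition of growth.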

How the values were obtained:
Assay in all cases: inhibition of tumour cell growth, NCI panel, 48 h
RXF 393 renal = tested on: RXF 393 renal
SK-MEL-2 melanoma = tested on: SK-MEL-2 melanoma
HL-60(TB) leukemia = tested on: HL-60(TB) leukemia
BT-549 breast = tested on: BT-549 breast
K-562 leukemia = tested on: K-562 leukemia
MOLT-4 leukemia = tested on: MOLT-4 leukemia
SR leukemia = tested on: SR leukemia
MCF7 breast = tested on: MCF7 breast
HOP-92 NSCLC = tested on: HOP-92 NSCLC
SF-268 CNS = tested on: SF-268 CNS
SN12C renal = tested on: SN12C renal
EKVX NSCLC = tested on: EKVX NSCLC
A498 renal = tested on: A498 renal
HOP-62 NSCLC = tested on: HOP-62 NSCLC
SNB-19 CNS = tested on: SNB-19 CNS
OVCAR-5 ovarian = tested on: OVCAR-5 ovarian
MALME-3M melanoma = tested on: MALME-3M melanoma
ACHN renal = tested on: ACHN renal
PC-3 prostate = tested on: PC-3 prostate
NCI-H522 lung = tested on: NCI-H522 lung
UACC-257 melanoma = tested on: UACC-257 melanoma
M14 melanoma = tested on: M14 melanoma
SF-539 CNS = tested on: SF-539 CNS
OVCAR-4 ovarian = tested on: OVCAR-4 ovarian
NCI-H460 lung = tested on: NCI-H460 lung
SNB-75 CNS = tested on: SNB-75 CNS
IGROV1 ovarian = tested on: IGROV1 ovarian
HCT-116 colon = tested on: HCT-116 colon
T-47D breast = tested on: T-47D breast
A549 NSCLC = tested on: A549 NSCLC
SK-MEL-28 melanoma = tested on: SK-MEL-28 melanoma
COLO 205 colon = tested on: COLO 205 colon
HT29 colon = tested on: HT29 colon
UACC-62 melanoma = tested on: UACC-62 melanoma
UO-31 renal = tested on: UO-31 renal
MDA-MB-231 breast = tested on: MDA-MB-231 breast
LOX IMVI melanoma = tested on: LOX IMVI melanoma
CAKI-1 renal = tested on: CAKI-1 renal
786-0 renal = tested on: 786-0 renal
DU-145 prostate = tested on: DU-145 prostate
HS 578T breast = tested on: HS 578T breast
SF-295 CNS = tested on: SF-295 CNS
OVCAR-8 ovarian = tested on: OVCAR-8 ovarian
SW-620 colon = tested on: SW-620 colon
SK-OV-3 ovarian = tested on: SK-OV-3 ovarian
HCC-2998 colon = tested on: HCC-2998 colon
KM12 colon = tested on: KM12 colon
U251 CNS = tested on: U251 CNS
RPMI-8226 leukemia = tested on: RPMI-8226 leukemia
HCT-15 colon = tested on: HCT-15 colon
SK-MEL-5 melanoma = tested on: SK-MEL-5 melanoma
NCI-H226 lung = tested on: NCI-H226 lung
CCRF-CEM leukemia = tested on: CCRF-CEM leukemia
MDA-MB-435 = tested on: MDA-MB-435

Question: What does the source list for `CO/N=C1\CCc2c(sc(NC(=O)c3cccc(C(F)(F)F)c3)c2C(N)=O)C1`?
Answer: GI50 (RXF 393 renal): 1910 nM; TGI (RXF 393 renal): 3.65 µM; GI50 (SK-MEL-2 melanoma): 4.08 µM; TGI (SK-MEL-2 melanoma): 96.3 µM; GI50 (HL-60(TB) leukemia): > 100000 nM; TGI (HL-60(TB) leukemia): > 100 µM; GI50 (BT-549 breast): 3530 nM; TGI (BT-549 breast): > 100 µM; GI50 (K-562 leukemia): > 100000 nM; TGI (K-562 leukemia): > 100 µM; GI50 (MOLT-4 leukemia): > 100000 nM; TGI (MOLT-4 leukemia): > 100 µM; GI50 (SR leukemia): > 100000 nM; TGI (SR leukemia): > 100 µM; GI50 (MCF7 breast): 2370 nM; TGI (MCF7 breast): > 100 µM; GI50 (HOP-92 NSCLC): 1560 nM; TGI (HOP-92 NSCLC): 4.06 µM; GI50 (SF-268 CNS): 4250 nM; TGI (SF-268 CNS): > 100 µM

Question: How did the GI50 (SN12C renal) turn out when `CCNC(=O)N1CCc2cc(OC)c(OCCc3ccc(OC)cc3)cc2C1c1ccc([N+](=O)[O-])cc1C` (stereo unspecified) was run?
Answer: 1840 nM

Question: And the TGI (SN12C renal)?
Answer: > 100 µM

Question: And the GI50 (EKVX NSCLC)?
Answer: > 100 µM

Question: And the TGI (EKVX NSCLC)?
Answer: > 100 µM

Question: What about the GI50 (A498 renal) of the same compound?
Answer: 1550 nM

Question: What about the TGI (A498 renal) of the same compound?
Answer: 6.69 µM

Question: And the GI50 (HOP-62 NSCLC)?
Answer: 2280 nM

Question: And the TGI (HOP-62 NSCLC)?
Answer: > 100 µM

Question: What about the GI50 (SNB-19 CNS) of the same compound?
Answer: 1330 nM

Question: What about the TGI (SNB-19 CNS) of the same compound?
Answer: > 100 µM

Question: What about the GI50 (OVCAR-5 ovarian) of the same compound?
Answer: 2140 nM

Question: And the TGI (OVCAR-5 ovarian)?
Answer: > 100 µM

Question: What about the GI50 (MALME-3M melanoma) of the same compound?
Answer: 4.12 µM

Question: What about the TGI (MALME-3M melanoma) of the same compound?
Answer: > 100 µM

Question: What about the GI50 (ACHN renal) of the same compound?
Answer: 875 nM

Question: And the TGI (ACHN renal)?
Answer: > 100 µM

Question: What about the GI50 (PC-3 prostate) of the same compound?
Answer: 559 nM

Question: What about the TGI (PC-3 prostate) of the same compound?
Answer: > 100 µM

Question: What about the GI50 (NCI-H522 lung) of the same compound?
Answer: 730 nM

Question: What about the TGI (NCI-H522 lung) of the same compound?
Answer: 3.41 µM

Question: And the GI50 (UACC-257 melanoma)?
Answer: 3.54 µM

Question: And the TGI (UACC-257 melanoma)?
Answer: > 100 µM

Question: And the GI50 (M14 melanoma)?
Answer: 759 nM

Question: What about the TGI (M14 melanoma) of the same compound?
Answer: > 100 µM

Question: And the GI50 (SF-539 CNS)?
Answer: 702 nM

Question: And the TGI (SF-539 CNS)?
Answer: 6.77 µM

Question: And the GI50 (OVCAR-4 ovarian)?
Answer: 2800 nM

Question: And the TGI (OVCAR-4 ovarian)?
Answer: > 100 µM

Question: And the GI50 (NCI-H460 lung)?
Answer: 368 nM

Question: What about the TGI (NCI-H460 lung) of the same compound?
Answer: 3.3 µM

Question: And the GI50 (SNB-75 CNS)?
Answer: 680 nM

Question: And the TGI (SNB-75 CNS)?
Answer: 6.95 µM

Question: What about the GI50 (IGROV1 ovarian) of the same compound?
Answer: 759 nM

Question: And the TGI (IGROV1 ovarian)?
Answer: > 100 µM

Question: And the GI50 (HCT-116 colon)?
Answer: 437 nM

Question: And the TGI (HCT-116 colon)?
Answer: > 100 µM

Question: And the GI50 (T-47D breast)?
Answer: 3.34 µM

Question: What about the TGI (T-47D breast) of the same compound?
Answer: > 100 µM

Question: And the GI50 (A549 NSCLC)?
Answer: 840 nM

Question: What about the TGI (A549 NSCLC) of the same compound?
Answer: > 100 µM

Question: What about the GI50 (SK-MEL-28 melanoma) of the same compound?
Answer: 869 nM

Question: What about the TGI (SK-MEL-28 melanoma) of the same compound?
Answer: > 100 µM

Question: And the GI50 (COLO 205 colon)?
Answer: 797 nM

Question: What about the TGI (COLO 205 colon) of the same compound?
Answer: > 100 µM

Question: What about the GI50 (HT29 colon) of the same compound?
Answer: 706 nM

Question: What about the TGI (HT29 colon) of the same compound?
Answer: 6.04 µM

Question: What about the GI50 (UACC-62 melanoma) of the same compound?
Answer: 547 nM

Question: What about the TGI (UACC-62 melanoma) of the same compound?
Answer: > 100 µM

Question: What about the GI50 (UO-31 renal) of the same compound?
Answer: 1540 nM

Question: What about the TGI (UO-31 renal) of the same compound?
Answer: > 100 µM

Question: What about the GI50 (SK-MEL-2 melanoma) of the same compound?
Answer: 2.37 µM

Question: What about the TGI (SK-MEL-2 melanoma) of the same compound?
Answer: > 100 µM

Question: And the GI50 (MDA-MB-231 breast)?
Answer: 797 nM

Question: What about the TGI (MDA-MB-231 breast) of the same compound?
Answer: > 100 µM

Question: What about the GI50 (LOX IMVI melanoma) of the same compound?
Answer: 387 nM

Question: And the TGI (LOX IMVI melanoma)?
Answer: 7.65 µM

Question: And the GI50 (HL-60(TB) leukemia)?
Answer: 608 nM

Question: What about the TGI (HL-60(TB) leukemia) of the same compound?
Answer: 10.6 µM

Question: And the GI50 (CAKI-1 renal)?
Answer: 1090 nM

Question: What about the TGI (CAKI-1 renal) of the same compound?
Answer: > 100 µM

Question: And the GI50 (BT-549 breast)?
Answer: 1670 nM

Question: What about the TGI (BT-549 breast) of the same compound?
Answer: 6.12 µM

Question: And the GI50 (786-0 renal)?
Answer: 619 nM

Question: What about the TGI (786-0 renal) of the same compound?
Answer: > 100 µM

Question: What about the GI50 (DU-145 prostate) of the same compound?
Answer: 1870 nM

Question: And the TGI (DU-145 prostate)?
Answer: > 100 µM

Question: What about the GI50 (HS 578T breast) of the same compound?
Answer: 1570 nM

Question: And the TGI (HS 578T breast)?
Answer: 7.35 µM

Question: What about the GI50 (SF-295 CNS) of the same compound?
Answer: 576 nM

Question: What about the TGI (SF-295 CNS) of the same compound?
Answer: > 100 µM

Question: And the GI50 (OVCAR-8 ovarian)?
Answer: 812 nM

Question: What about the TGI (OVCAR-8 ovarian) of the same compound?
Answer: > 100 µM

Question: What about the GI50 (SW-620 colon) of the same compound?
Answer: 551 nM

Question: And the TGI (SW-620 colon)?
Answer: > 100 µM

Question: What about the GI50 (SK-OV-3 ovarian) of the same compound?
Answer: 2830 nM

Question: And the TGI (SK-OV-3 ovarian)?
Answer: > 100 µM

Question: What about the GI50 (K-562 leukemia) of the same compound?
Answer: 381 nM

Question: What about the TGI (K-562 leukemia) of the same compound?
Answer: > 100 µM

Question: And the GI50 (HCC-2998 colon)?
Answer: 1950 nM

Question: What about the TGI (HCC-2998 colon) of the same compound?
Answer: > 100 µM

Question: And the GI50 (KM12 colon)?
Answer: 4.64 µM

Question: And the TGI (KM12 colon)?
Answer: > 100 µM

Question: What about the GI50 (U251 CNS) of the same compound?
Answer: 580 nM

Question: And the TGI (U251 CNS)?
Answer: > 100 µM

Question: What about the GI50 (RPMI-8226 leukemia) of the same compound?
Answer: 631 nM

Question: And the TGI (RPMI-8226 leukemia)?
Answer: 7.14 µM

Question: And the GI50 (HCT-15 colon)?
Answer: 382 nM

Question: And the TGI (HCT-15 colon)?
Answer: > 100 µM

Question: What about the GI50 (MOLT-4 leukemia) of the same compound?
Answer: 485 nM

Question: And the TGI (MOLT-4 leukemia)?
Answer: > 100 µM

Question: And the GI50 (SR leukemia)?
Answer: 327 nM

Question: What about the TGI (SR leukemia) of the same compound?
Answer: > 100 µM

Question: What about the GI50 (SK-MEL-5 melanoma) of the same compound?
Answer: 794 nM

Question: And the TGI (SK-MEL-5 melanoma)?
Answer: 3.59 µM

Question: What about the GI50 (NCI-H226 lung) of the same compound?
Answer: 2090 nM

Question: What about the TGI (NCI-H226 lung) of the same compound?
Answer: > 100 µM

Question: What about the GI50 (MCF7 breast) of the same compound?
Answer: 540 nM

Question: What about the TGI (MCF7 breast) of the same compound?
Answer: > 100 µM

Question: What about the GI50 (HOP-92 NSCLC) of the same compound?
Answer: 1040 nM

Question: And the TGI (HOP-92 NSCLC)?
Answer: 8.03 µM

Question: What about the GI50 (SF-268 CNS) of the same compound?
Answer: 881 nM

Question: What about the TGI (SF-268 CNS) of the same compound?
Answer: > 100 µM

Question: And the GI50 (CCRF-CEM leukemia)?
Answer: 662 nM

Question: What about the TGI (CCRF-CEM leukemia) of the same compound?
Answer: > 100 µM

Question: And the GI50 (MDA-MB-435)?
Answer: 491 nM

Question: What about the TGI (MDA-MB-435) of the same compound?
Answer: > 100 µM
